# Reference: patent US8080252B2, “Compounds and methods of modulating angiogenesis” (The Cleveland Clinic Foundation, priority 2006, dated 2011)
# Like-named read-outs stand apart in the source and are kept apart here. Non-standard residues stand in square brackets, D forms with d. No end group written: not given here. pY = N[C@@H](Cc1ccc(OP(=O)(O)O)cc1)C(=O)O
# Columns and labels:
# αvβ3 integrin [1] = test: WOW-1 binding assay, WT and DiYF mouse lung endothelial cells (FACS); format: cell-based; details: 20 ng/ml VEGF or 1 mM MnCl2
# Experimental: Wild type and DiYF mouse lung endothelial cells were serum starved for 4 h and further stimulated with 20 ng/ml VEGF-165, 20 ng/ml b-FGF or 1 mm MnCl2 separately. WoW-1 Fab was added at a final concentration of […], followed by addition of Fluorescein isothiocyanate (FITC) conjugated goat anti-mouse IgG at 10 μg/ml. After 30 min cells were fixed with 3.7% formaldehyde/PBS for 15 min, washed twice with 1×PBS and FACS was performed using a FACS Calibur (Becton Dickinson, San Jose, Calif.) instrument and data were analyzed using CellQuest software program.
# αvβ3 integrin [2] = test: Fibrinogen binding assay, WT and DiYF mouse lung endothelial cells (FACS); format: cell-based; details: 20 ng/ml VEGF or 1 mM MnCl2
# Experimental: To assess fibrinogen binding, semiconfluent wild type and DiYF mouse lung endothelial cells were serum starved for 4 h and further induced with 20 ng/ml VEGF-165, 20 ng/ml b-FGF or 1 mm MnCl2. Fluorescein isothiocyanate (FITC)-labeled fibrinogen was added at a final concentration of 200 nM for 45 min. […] Fluorescence-activated cell sorting (FACS) was performed using a FACS Calibur (Becton Dickinson, San Jose, Calif.) and data were analyzed using CellQuest software program.
# HUVECs = test: Cell migration assay of HUVECs on vitronectin, VEGF as agonist (Example 5); format: cell-based, Human; details: vitronectin as substrate
# Experimental: (§1) To assess the role of Src-mediated β3 integrin tyrosine phosphorylation in αvβ3 integrin dependent EC migration, HUVECs transfected with various forms of Src were evaluated in migration assays using VEGF as an agonist and vitronectin as a substrate. […] To further evaluate the c-Src mediated β3 integrin cytoplasmic tyrosine motifs phosphorylation in αvβ3 integrin dependent endothelial cell migration, wild type and DiYF mouse lung microvascular endothelial cells were transfected with wild type, dominant negative and catalytically active form of c-Src and stimulated with VEGF (FIG. 23 B).
# (§2) Transwell tissue culture inserts were coated with αvβ3 integrin ligand vitronectin for 24 h at 4° C. Endothelial cells were transfected with various forms of c-Src or treated with inhibitors and were trypsinized; then 1×10^5 cells were added into each well. Cells were allowed to migrate for 12 h and fixed with 70% methanol for 15 min and stained with Giemsa. The non-migrated cells adhered to the top surface were removed and three random 10× fields were photographed using an inverted phase contrast microscopy.
# β3 integrin = β3 integrin tyrosine phosphorylation (Tyr-747 and 759) in HUVECs, Western blot; format: cell-based, Human; details: serum starved HUVECs, 400 nm and 800 nm SU1498
# Experimental: αvβ3 integrin is expressed on proliferating endothelial cells during angiogenesis and vascular remodeling and the blockade of αvβ3 integrin suppressed angiogenesis in several in vivo models. Therefore, we assessed whether the blockade of αvβ3 affected tyrosine phosphorylation of β3 subunit. […] Cells were also treated with non-immune IgG as control. These cells were washed and further induced with VEGF for 5 min at 37° C. Cell lysates were analyzed for phosphorylation of β3 integrin (Tyr-747 and 759). […] Basal level of β3 integrin tyrosine phosphorylation remains unaffected irrespective of different blocking antibody treatment. To further examine consequences of αvβ3 integrin blocking antibodies, cell lysates were analyzed for tyrosine phosphorylation of VEGFR-2 (Tyr-1175).
# Cytoplasmic domains of integrin β subunits are highly conserved and represents region of structural homology between the various groups. […] Cell lysates were analyzed for the phosphorylation of β3 integrin. […]
# Cells were lysed in immunoprecipitation lysis buffer (1% Noniodet P-40, 150 mM NaCl, 50 mM Tris-HCL (pH 7.8), 2 mM EDTA, 10 mM NaF, 10 mM Na2P2O7, 2 mM Na3VO4 10 μg/mL leupeptin, 4 μg/mL pepstatin and 0.1 U/mL aprotinin). […] Bands were analyzed by densitomeric analysis using Kodak 1D software and fold changes were indicated.
# [3] = test system: cells expressing αvβ3 integrin and VEGFR2; test: Angiogenesis of cells expressing αvβ3 integrin and VEGFR2 with stimulating peptides; format: cell-based; details: both in the presence and the absence of VEGF
# αvβ3 integrin [4] = target: T1, αvβ3 integrin (Homo sapiens, UniProt P05106+P06756); test: WOW-1 binding assay in HUVECs (αvβ3 integrin activation, FACS); format: cell-based; details: 20 ng/mL
# T1 construct: Semiconfluent HUVECs were serum starved for 4 h and further stimulated with 20 ng/mL VEGF-A165 or VEGFDΔNΔC; endogenous in cells; host or cells: HUVEC
# Experimental: Semiconfluent HUVECs were serum starved for 4 h and further stimulated with 20 ng/mL VEGF-A165 or VEGFDΔNΔC. WOW-1 Fab was added to a final concentration of 30 μg/mL, followed by addition of FITC-conjugated goat anti-mouse IgG at 10 μg/mL. After 30 min cells were fixed with 3.7% formaldehyde in PBS for 15 min, washed twice with PBS, and fluorescence-activated cell sorting (FACS) was performed using a FACS Calibur (Becton Dickinson, San Jose, Calif.) and data were analyzed using CellQuest software.
# Semiconfluent HUVECs were transfected with various forms of c-Src or Src++. SYF, SYF+Src cells were serum starved for 4 h and further stimulated with 20 ng/mL VEGF-A165 or b-FGF. WOW-1 Fab was added at a final concentration of 30 μg/mL, followed by addition of FITC-conjugated goat anti-mouse IgG at 10 μg/mL. After 30 min cells were fixed with 3.7% formaldehyde/PBS for 15 min, washed twice with PBS, and FACS analysis was performed as described above.
# [5] = test system: mouse lung endothelial cells; details: 20 ng/ml VEGF, 8 h
# Experimental: The formation of vascular tube-like structures by wild type and DiYF mouse lung endothelial cells were assessed on the basement membrane matrix preparation. Six well plates were coated with 0.5 ml of Matrigel according to the manufacturer's instructions. Wild type and DiYF mouse lung endothelial cells were detached from the tissue culture flasks using 20 mM EDTA. Cells were washed twice with sterile 1×PBS and seeded on Matrigel coated plate. Medium was supplemented with or without 20 ng/ml VEGF and further incubated at 37° C. for 8 h. The tube formation was observed using an inverted phase contrast microscope (Leica) and photographs were taken from each well. Using ImagePro software, the degree of tube formation was quantified by measuring the length of tubes in random fields.
# VEGFR-2 = target: T2, VEGFR-2 (Mus musculus, UniProt P35918); test: VEGFR-2 phosphorylation time course in WT and DiYF mouse endothelial cells; format: cell-based; details: 20 ng/ml VEGF
# T2 construct: Serum starved wild type and DiYF endothelial cells were also treated with 20 ng/ml VEGF for 0-60 mins; endogenous in cells; host or cells: primary mouse lung endothelial cells (WT and DiYF knock-in, C57/Bl6)
# Experimental: Serum starved wild type and DiYF endothelial cells were also treated with 20 ng/ml VEGF for 0-60 mins. Cell lysates were analyzed by Western blot using anti-integrin β3 [pY^747], anti-integrin [pY^759], anti-p-VEGFR-2, anti-VEGFR-2, anti-p-ERK1/2, anti-ERK1/2, anti-p-Akt, anti-Akt, anti-p-P38MAPK and anti-MAPK antibody. The wild type and DiYF endothelial cells were lysed and equal proteins from total cell lysates were subjected SDS-PAGS and analyzed by western blot using anti-VEGFR-2 and anti-CD-31 antibody.
# [6] = test system: HUVECs (Human Umbilical vascular endothelial cells); details: HUVECs on Matrigel, 8 h
# Excerpt: The tube formation was observed using an inverted phase contrast microscope (Leica) and photographs were taken from each well. Using ImagePro software, the degree of tube formation was quantified by measuring the length of tubes in random fields.
# [7] = test system: mouse lung endothelial cells; details: WT EC
# Experimental: Transwell tissue culture inserts were coated with various integrin ligands for 24 h at 4° C. Both WT and DiYF lung endothelial cells were trypsinized and 1×10^5 cells were added into each well. The lower chamber contained varying concentrations of VEGF-A165 (0-20 ng/ml). Cells were allowed to migrate for 12 h and fixed with 3.7% formaldehyde/PBS for 15 min and stained with 0.5% crystal violet. The non-migrated cells adhered to the top surface were removed and three random 10× fields were photographed using Leica inverted phase contrast microscope.
# [8] = test system: mouse lung microvascular endothelial cells
# Experimental: as §1, §2
# T2 sequence (P35918 20-1345): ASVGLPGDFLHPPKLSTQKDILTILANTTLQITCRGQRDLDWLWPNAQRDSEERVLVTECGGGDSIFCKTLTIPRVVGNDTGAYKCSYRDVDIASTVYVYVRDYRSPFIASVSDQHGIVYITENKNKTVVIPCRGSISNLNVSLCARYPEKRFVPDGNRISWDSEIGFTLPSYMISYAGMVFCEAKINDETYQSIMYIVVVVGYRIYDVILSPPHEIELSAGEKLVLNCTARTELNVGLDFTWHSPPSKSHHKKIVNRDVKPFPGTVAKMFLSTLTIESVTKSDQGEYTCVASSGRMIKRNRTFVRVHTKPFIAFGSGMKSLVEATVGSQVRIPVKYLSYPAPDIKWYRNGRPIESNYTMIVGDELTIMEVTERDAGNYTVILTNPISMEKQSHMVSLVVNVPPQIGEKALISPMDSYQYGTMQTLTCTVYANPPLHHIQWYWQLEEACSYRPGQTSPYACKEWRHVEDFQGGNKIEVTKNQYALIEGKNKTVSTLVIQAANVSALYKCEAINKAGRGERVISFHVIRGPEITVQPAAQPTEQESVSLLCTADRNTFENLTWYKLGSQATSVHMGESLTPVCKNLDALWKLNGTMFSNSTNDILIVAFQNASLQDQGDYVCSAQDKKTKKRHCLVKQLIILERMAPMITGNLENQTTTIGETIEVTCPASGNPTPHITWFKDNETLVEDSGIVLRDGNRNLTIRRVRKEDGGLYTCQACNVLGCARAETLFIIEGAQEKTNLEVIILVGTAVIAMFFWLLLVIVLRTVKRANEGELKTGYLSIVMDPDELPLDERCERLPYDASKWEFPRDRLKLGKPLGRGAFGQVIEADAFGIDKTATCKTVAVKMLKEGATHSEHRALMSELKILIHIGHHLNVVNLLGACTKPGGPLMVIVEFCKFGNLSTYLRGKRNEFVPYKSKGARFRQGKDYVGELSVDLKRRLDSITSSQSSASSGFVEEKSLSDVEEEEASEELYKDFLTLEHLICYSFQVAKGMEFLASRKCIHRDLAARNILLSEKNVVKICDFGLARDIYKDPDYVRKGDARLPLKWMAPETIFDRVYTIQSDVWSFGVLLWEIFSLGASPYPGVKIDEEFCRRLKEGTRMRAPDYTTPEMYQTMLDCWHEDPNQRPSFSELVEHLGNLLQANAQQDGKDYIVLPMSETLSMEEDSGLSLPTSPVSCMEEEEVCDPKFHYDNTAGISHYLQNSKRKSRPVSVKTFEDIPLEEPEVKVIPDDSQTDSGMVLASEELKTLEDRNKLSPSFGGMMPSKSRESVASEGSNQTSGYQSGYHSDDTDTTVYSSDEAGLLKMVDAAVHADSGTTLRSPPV
# T1 sequence (P06756 31-1048): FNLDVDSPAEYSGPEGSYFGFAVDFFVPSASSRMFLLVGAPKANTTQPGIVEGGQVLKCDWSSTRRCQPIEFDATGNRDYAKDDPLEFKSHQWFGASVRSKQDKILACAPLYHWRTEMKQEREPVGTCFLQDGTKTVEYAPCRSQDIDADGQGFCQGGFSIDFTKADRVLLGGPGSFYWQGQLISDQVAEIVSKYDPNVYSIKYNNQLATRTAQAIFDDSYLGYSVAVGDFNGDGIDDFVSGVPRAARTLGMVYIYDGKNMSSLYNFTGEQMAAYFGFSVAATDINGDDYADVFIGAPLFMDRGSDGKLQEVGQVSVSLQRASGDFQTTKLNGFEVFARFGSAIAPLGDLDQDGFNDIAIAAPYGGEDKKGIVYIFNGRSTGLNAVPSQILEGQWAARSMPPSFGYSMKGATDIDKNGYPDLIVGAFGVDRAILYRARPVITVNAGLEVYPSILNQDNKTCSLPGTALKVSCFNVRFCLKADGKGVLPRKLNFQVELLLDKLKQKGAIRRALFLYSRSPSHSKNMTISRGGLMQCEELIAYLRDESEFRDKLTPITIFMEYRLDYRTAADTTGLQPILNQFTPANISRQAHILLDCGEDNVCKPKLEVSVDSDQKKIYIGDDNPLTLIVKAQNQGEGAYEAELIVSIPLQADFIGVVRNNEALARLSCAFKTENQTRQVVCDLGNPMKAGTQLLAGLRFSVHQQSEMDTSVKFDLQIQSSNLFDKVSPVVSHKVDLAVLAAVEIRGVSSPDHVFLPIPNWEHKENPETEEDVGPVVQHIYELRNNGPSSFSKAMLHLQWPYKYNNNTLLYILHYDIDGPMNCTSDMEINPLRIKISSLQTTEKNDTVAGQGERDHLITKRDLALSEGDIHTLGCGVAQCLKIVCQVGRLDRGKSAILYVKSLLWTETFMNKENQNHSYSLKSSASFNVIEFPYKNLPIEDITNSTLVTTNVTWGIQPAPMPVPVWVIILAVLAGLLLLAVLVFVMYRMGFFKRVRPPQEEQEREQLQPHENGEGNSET
# T1 sequence (P05106 27-788): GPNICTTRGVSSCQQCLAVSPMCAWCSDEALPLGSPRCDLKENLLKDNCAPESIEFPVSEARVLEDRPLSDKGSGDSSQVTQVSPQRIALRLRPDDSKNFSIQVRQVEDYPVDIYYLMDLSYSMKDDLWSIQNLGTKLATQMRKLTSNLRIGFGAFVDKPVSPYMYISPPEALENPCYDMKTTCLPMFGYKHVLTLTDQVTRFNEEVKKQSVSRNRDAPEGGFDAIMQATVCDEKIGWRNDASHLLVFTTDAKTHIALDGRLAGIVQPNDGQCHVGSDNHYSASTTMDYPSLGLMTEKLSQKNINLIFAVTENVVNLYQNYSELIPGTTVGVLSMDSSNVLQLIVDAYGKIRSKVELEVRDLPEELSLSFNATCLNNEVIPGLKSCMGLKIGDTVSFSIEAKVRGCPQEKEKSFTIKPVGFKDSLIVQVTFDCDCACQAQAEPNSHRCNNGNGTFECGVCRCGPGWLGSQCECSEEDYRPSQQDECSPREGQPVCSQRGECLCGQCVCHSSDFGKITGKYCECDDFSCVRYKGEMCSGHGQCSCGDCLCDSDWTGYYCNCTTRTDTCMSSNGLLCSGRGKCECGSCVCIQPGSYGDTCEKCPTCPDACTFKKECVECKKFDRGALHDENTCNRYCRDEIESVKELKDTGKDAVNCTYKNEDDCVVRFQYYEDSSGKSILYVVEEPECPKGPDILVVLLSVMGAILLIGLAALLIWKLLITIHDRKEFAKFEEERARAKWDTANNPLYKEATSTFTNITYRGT
compound,measurement,setting,value
"[Cl][Mn][Cl] [MnCl2, reference compound]",increase in WOW-1 binding,αvβ3 integrin [1]; DiYF EC,14 fold
same,increase in WOW-1 binding,αvβ3 integrin [1]; WT EC,30 fold
same,increase of fibrinogen binding,αvβ3 integrin [2]; DiYF EC,17 fold
same,increase of fibrinogen binding,αvβ3 integrin [2]; WT EC,at least 40 fold
CC(C)c1cc(/C=C(\C#N)C(=O)NCCCc2ccccc2)cc(C(C)C)c1O [SU1498],effect on EC migration triggered by VEGF,HUVECs,reduced EC migration triggered by VEGF
same,effect on VEGF induced β3 integrin cytoplasmic tyrosine residue phosphorylation,β3 integrin,significantly reduced
"KEATSTFTNITYpRGT-COOH (KEATSTFTNIT[pY]RGT-OH; N-terminus assumed; SMILES CC[C@H](C)[C@H](NC(=O)[C@H](CC(N)=O)NC(=O)[C@@H](NC(=O)[C@H](Cc1ccccc1)NC(=O)[C@@H](NC(=O)[C@H](CO)NC(=O)[C@@H](NC(=O)[C@H](C)NC(=O)[C@H](CCC(=O)O)NC(=O)[C@@H](N)CCCCN)[C@@H](C)O)[C@@H](C)O)[C@@H](C)O)C(=O)N[C@H](C(=O)N[C@@H](Cc1ccc(OP(=O)(O)O)cc1)C(=O)N[C@@H](CCCNC(=N)N)C(=O)NCC(=O)N[C@H](C(=O)O)[C@@H](C)O)[C@@H](C)O; listed as Homo sapiens) [SEQ ID NO: 15, stimulating peptide; β3 integrin cytoplasmic peptide specific for tyrosine-759]",effect on angiogenesis,[3],promote angiogenesis
VEGF,increase of WOW-1 binding to EC compared to resting cells,αvβ3 integrin [4],6 fold
same,effect on the length of the tubes,[5]; DiYF EC,little effect
same,increase in the length of the tubes,[5]; WT EC,about 3 fold
same,maximum increase in VEGFR-2 phosphorylation over control,VEGFR-2; DiYF EC,2.5 fold
same,maximum increase in VEGFR-2 phosphorylation over control,VEGFR-2; WT EC,6 fold
same,endothelial cell tube formation induced,[6],at least 450 μm/mm^2
same,increase in WOW-1 binding,αvβ3 integrin [1]; DiYF EC,3.5 fold
same,increase in WOW-1 binding,αvβ3 integrin [1]; WT EC,9 fold
same,increase of migration compared to untreated EC,[7]; VEGF 5 ng/ml,1.5 fold
same,increase of migration compared to untreated EC,[7]; VEGF 10 ng/ml,2.5 fold
same,increase of migration compared to untreated EC,[7]; VEGF 20 ng/ml,2.9 fold
same,increase in endothelial cell migration,[8]; CA-Src transfected wild type endothelial cells,3.5 fold
same,increase in endothelial cell migration,[8]; WT-Src transfected wild type endothelial cells,2.5 fold
same,increase of fibrinogen binding,αvβ3 integrin [2]; DiYF EC,3 fold
same,increase of fibrinogen binding,αvβ3 integrin [2]; WT EC,at least 6 fold
"YGRKKRRQRRRGKEATSTFTNITYpRGT-COOH (YGRKKRRQRRRGKEATSTFTNIT[pY]RGT-OH; N-terminus assumed; SMILES CC[C@H](C)[C@H](NC(=O)[C@H](CC(N)=O)NC(=O)[C@@H](NC(=O)[C@H](Cc1ccccc1)NC(=O)[C@@H](NC(=O)[C@H](CO)NC(=O)[C@@H](NC(=O)[C@H](C)NC(=O)[C@H](CCC(=O)O)NC(=O)[C@H](CCCCN)NC(=O)CNC(=O)[C@H](CCCNC(=N)N)NC(=O)[C@H](CCCNC(=N)N)NC(=O)[C@H](CCCNC(=N)N)NC(=O)[C@H](CCC(N)=O)NC(=O)[C@H](CCCNC(=N)N)NC(=O)[C@H](CCCNC(=N)N)NC(=O)[C@H](CCCCN)NC(=O)[C@H](CCCCN)NC(=O)[C@H](CCCNC(=N)N)NC(=O)CNC(=O)[C@@H](N)Cc1ccc(O)cc1)[C@@H](C)O)[C@@H](C)O)[C@@H](C)O)C(=O)N[C@H](C(=O)N[C@@H](Cc1ccc(OP(=O)(O)O)cc1)C(=O)N[C@@H](CCCNC(=N)N)C(=O)NCC(=O)N[C@H](C(=O)O)[C@@H](C)O)[C@@H](C)O; listed as Homo sapiens) [SEQ ID NO: 13, stimulating peptide]",effect on angiogenesis,[3],promote angiogenesis
